Laboratory results taken from patent US20100179205A1, “Composition for Enhanced Antiparasitic Activity” (Intervet International B.V., priority 2006, published 2010).

Tested on: Rhipicephalus sanguineus nymphs
Assay: Efficacy against Rhipicephalus sanguineus on infested guinea pigs, topical bath treatment
Format: in vivo
Conditions: for average number of detached ticks per animal (detachment effect): bath treatment, 24 hours after treatment, guinea pigs infested with 100 nymphs; for overall acaricidal efficacy against R. sanguineus-nymphs: compared to the control group; for average number of engorged ticks per animal: engorged ticks dropping from d4 to d8; for average number of dead ticks after detachment: mortality assessed 24 hours after detachment
Method: Efficacy against Rhipicephalus sanguineus
Guinea pigs were infested with 100 nymphs of Rhipicephalus sanguineus (d0). Guinea pigs (n=3) were treated topically (bath treatment) with atipamezol (7.8 ppm), amitraz (2.0 ppm; 3.9 ppm) and two combinations of both (7.8 ppm atipamezol+2.0 ppm amitraz; 7.8 ppm atipamezol+3.9 ppm amitraz), respectively (d1). The control group remained untreated.
The number of detached ticks was assessed 1, 3, 6 and 24 hours after treatment (detachment effect).
The mortality of detached ticks was assessed 24 hours after detachment.
The average number of engorged ticks dropping per animal from d4 to d8 was assessed to determine the overall acaricidal efficacy compared to the control group.

SMILES | average number of detached ticks per animal (detachment effect) (2.0 ppm amitraz) | overall acaricidal efficacy against R. sanguineus-nymphs (2.0 ppm amitraz) [%] | average number of engorged ticks per animal (2.0 ppm amitraz) | average number of dead ticks after detachment (2.0 ppm amitraz) | average number of detached ticks per animal (detachment effect) (3.9 ppm amitraz) | overall acaricidal efficacy against R. sanguineus-nymphs (3.9 ppm amitraz) [%] | average number of engorged ticks per animal (3.9 ppm amitraz) | average number of dead ticks after detachment (3.9 ppm amitraz) | average number of detached ticks per animal (detachment effect) (7.8 ppm atipamezol) | overall acaricidal efficacy against R. sanguineus-nymphs (7.8 ppm atipamezol) [%] | average number of engorged ticks per animal (7.8 ppm atipamezol) | average number of dead ticks after detachment (7.8 ppm atipamezol) | acaricidal/insecticidal effect (in words) (atipamezole alone)
Cc1ccc(N=CN(C)C=Nc2ccc(C)cc2C)c(C)c1 [amitraz, 1,5-di-(2,4-dimethylphenyl)-3-methyl-1,3,5-triazapenta-1,4-diene] | 29.7 | 84 | 8.7 | 24.3 | 43.7 | 100 | 0 | 39.7 |  |  |  |  | 
CCC1(c2cnc[nH]2)Cc2ccccc2C1 [atipamezol, 4(5)-(2,3-dihydro-2-ethyl-1H-inden-2-yl)imidazole] |  |  |  |  |  |  |  |  | 2.0 | 63 | 20.7 | 1.3 | does not show an acaricidal/insecticidal effect
